Measured values published in patent publication US20070027143A1, “Novel substituted 2,3-benzodiazepine derivatives” (priority 2003, published 2007).

| Compound | melting point |
| --- | --- |
| C[C@H]1Cc2cc3c(cc2C(c2ccc(N)cc2)=NN1C1=NCCS1)OCO3 [Example 70, (S)-5-(4-Aminophenyl)-7-(4,5-dihydro-thiazol-2-yl)-8-methyl-8,9-dihydro-7H-1,3-dioxolo-[4,5-h][2,3]benzodiazepine] | 150 to 152 °C |
| CC(=O)Nc1ccc(C2=NN(C3=NCCO3)C(C)Cc3cc4c(cc32)OCO4)cc1 (racemic) [Example 127, (±)-5-(4-Acetylaminophenyl)-7-(4,5-dihydro-oxazol-2-yl)-8-methyl-8,9-dihydro-7H-1,3-dioxolo-[4,5-h][2,3]benzodiazepine] | 124 to 128 °C |
| CC(=O)Nc1ccc(C2=NN(C3=NCCS3)C(C)Cc3cc4c(cc32)OCO4)cc1 (racemic) [Example 122, (±)-5-(4-Acetylaminophenyl)-7-(4,5-dihydro-thiazol-2-yl)-8-methyl-8,9-dihydro-7H-1,3-dioxolo-[4,5-h][2,3]benzodiazepine] | 211 to 213 °C |
| CC(=O)Nc1ccc(C2=NN(C3=NCCS3)[C@H](C)Cc3cc4c(cc32)OCO4)cc1 [Example 125, (R)-5-(4-Acetylaminophenyl)-7-(4,5-dihydro-thiazol-2-yl)-8-methyl-8,9-dihydro-7H-1,3-dioxolo-[4,5-h][2,3]benzodiazepine] | 143 to 145 °C |
| CC1Cc2ccc(Cl)cc2C(c2ccc(N)cc2)=NN1C1=NCCS1 (racemic) [Example 79, (±)-1-(4-Aminophenyl)-3-(4,5-dihydro-thiazol-2-yl)-8-chloro-4-methyl-4,5-dihydro-3H-[2,3]benzodiazepine] | 213 to 216 °C |
| CC1Cc2ccc(Cl)cc2C(c2ccc(N)cc2)=NN1C1=NC(=O)CS1 (racemic) [Example 80, (±)-1-(4-Aminophenyl)-3-(4,5-dihydro-4-oxo-thiazol-2-yl)-8-chloro-4-methyl-4,5-dihydro-3H-[2,3]benzodiazepine] | 226 to 228 °C |
| CC(=O)Nc1ccc(C2=NN(c3ncc(C)s3)C(C)Cc3cc4c(cc32)OCO4)cc1 (racemic) [Example 120, (±)-5-(4-Acetylaminophenyl)-8-methyl-7-(5-methyl-thiazol-2-yl)-8,9-dihydro-7H-1,3-dioxolo-[4,5-h][2,3]benzodiazepine] | 176 to 179 °C |
| CC1Cc2cc3c(cc2C(c2ccc(N)cc2)=NN1c1ncn(C)n1)OCO3 (racemic) [Example 116, (±)-5-(4-Aminophenyl)-8-methyl-7-(1-methyl-1H-1,2,4-triazol-3-yl)-8,9-dihydro-7H-1,3-dioxolo-[4,5-h][2,3]benzodiazepine] | 165 to 168 °C |
| CC1Cc2cc3c(cc2C(c2ccc(N)cc2)=NN1c1nnc(C(F)(F)F)s1)OCO3 (racemic) [Example 90, (±)-5-(4-Aminophenyl)-8-methyl-7-(5-trifluoromethyl-1,3,4-thiadiazol-2-yl)-8,9-dihydro-7H-1,3-dioxolo-[4,5-h][2,3]benzodiazepine] | 216 to 218 °C |
| CC1Cc2cc3c(cc2C(c2ccc(N)cc2)=NN1c1ncnn1C)OCO3 (racemic) [Example 115, (±)-5-(4-Aminophenyl)-8-methyl-7-(2-methyl-2H-1,2,4-triazol-3-yl)-8,9-dihydro-7H-1,3-dioxolo-[4,5-h][2,3]benzodiazepine] | 182 to 183 °C |
| Cc1nnc(N2N=C(c3ccc(N)cc3)c3cc4c(cc3CC2C)OCO4)s1 (racemic) [Example 85, (±)-5-(4-Aminophenyl)-8-methyl-7-(5-methyl-1,3,4-thiadiazol-2-yl)-8,9-dihydro-7H-1,3-dioxolo-[4,5-h][2,3]benzodiazepine] | 143 to 148 °C |
| Cc1nc(N2N=C(c3ccc(N)cc3)c3cc4c(cc3CC2C)OCO4)no1 (racemic) [Example 109, (±)-5-(4-Aminophenyl)-8-methyl-7-(5-methyl-1,2,4-oxadiazol-3-yl)-8,9-dihydro-7H-1,3-dioxolo-[4,5-h][2,3]benzodiazepine] | 130 to 135 °C |
| C/C=C/c1nnc(N2N=C(c3ccc(N)c(C)c3)c3cc4c(cc3C[C@H]2C)OCO4)s1 [Example 177, (R)-5-(4-Amino-3-methylphenyl)-8-methyl-7-{5-[1-(1E)-propen-1-yl]-1,3,4-thiadiazol-2-yl}-8,9-dihydro-7H-1,3-dioxolo[4,5-h][2,3]benzodiazepine] | 139 to 143 °C |
| CC1Cc2cc3c(cc2C(c2ccc(N)cc2)=NN1C1=NNC(=O)CS1)OCO3 (racemic) [Example 100, (±)-5-(4-Aminophenyl)-7-(5,6-dihydro-5-oxo-4H-1,3,4-thiadiazin-2-yl)-8-methyl-8,9-dihydro-7H-1,3-dioxolo[4,5-h][2,3]benzodiazepine] | 172 to 176 °C |
| Cc1cnc(N2N=C(c3ccc(N)cc3)c3cc4c(cc3CC2C)OCO4)s1 (racemic) [Example 64, (±)-5-(4-Aminophenyl)-8-methyl-7-(5-methyl-thiazol-2-yl)-8,9-dihydro-7H-1,3-dioxolo-[4,5-h][2,3]benzodiazepine] | 165 to 167 °C |
| Cc1cc(C2=NN(c3nnc(CN)s3)[C@H](C)Cc3cc4c(cc32)OCO4)ccc1N [Example 176, (R)-5-(4-Amino-3-methylphenyl)-7-(5-aminomethyl-1,3,4-thiadiazol-2-yl)-8-methyl-8,9-dihydro-7H-1,3-dioxolo[4,5-h][2,3]benzodiazepine] | 139 to 140 °C |

| Compound | melting point |
| --- | --- |
| CC1=Cc2cc3c(cc2C(c2ccc(C)c(N)c2)=NN1c1nnc(C)s1)OCO3 [Example 96, (±)-5-(3-Amino-4-methylphenyl)-8-methyl-7-(5-methyl-1,3,4-thiadiazol-2-yl)-7H-1,3-dioxolo-[4,5-h][2,3]benzodiazepine] | 125 °C |
| CC1Cc2cc3c(cc2C(c2ccc(N)cc2)=NN1C1=NN=C(NC2CC2)[SH]1C)OCO3 (racemic) [Example 92, (±)-5-(4-Aminophenyl)-7-(5-cyclopropylamino-methyl-1,3,4-thiadiazol-2-yl)-8-methyl-8,9-dihydro-7H-1,3-dioxolo[4,5-h][2,3]benzodiazepine] | 135 to 138 °C |
| CC(=O)Nc1ccc(C2=NN(c3nc(C)cs3)C(C)Cc3cc4c(cc32)OCO4)cc1 (racemic) (hydrate or solvate) [Example 121, (±)-5-(4-Acetylaminophenyl)-8-methyl-7-(4-methyl-thiazol-2-yl)-8,9-dihydro-7H-1,3-dioxolo-[4,5-h][2,3]benzodiazepine] | 236 to 238 °C |
| CC1Cc2cc3c(cc2C(c2ccc(N)cc2)=NN1c1ccc(Cl)nn1)OCO3 (racemic) [Example 112, (±)-5-(4-Aminophenyl)-7-(3-chloropyridazin-6-yl)-8-methyl-8,9-dihydro-7H-1,3-dioxolo-[4,5-h][2,3]benzodiazepine] | 164 to 166 °C |
| CC(=O)Nc1ccc(C2=NN(c3ccc(Cl)nn3)C(C)Cc3cc4c(cc32)OCO4)cc1 (racemic) [Example 129, (±)-5-(4-Acetylaminophenyl)-7-(3-chloro-pyridazin-6-yl)-8-methyl-8,9-dihydro-7H-1,3-dioxolo-[4,5-h][2,3]benzodiazepine] | 164 to 170 °C |
| C[C@H]1Cc2cc3c(cc2C(c2ccc(N)cc2)=NN1c1nccs1)OCO3 [Example 62, (S)-5-(4-Aminophenyl)-8-methyl-7-(2-thiazolyl)-8,9-dihydro-7H-1,3-dioxolo[4,5-h][2,3]benzodiazepine] | 124 to 128 °C |
| CC1Cc2cc3c(cc2C(c2ccc(N)cc2)=NN1C1=NC(=O)CS1)OCO3 (racemic) [Example 71, (±)-5-(4-Aminophenyl)-7-(4,5-dihydro-4-oxo-thiazol-2-yl)-8-methyl-8,9-dihydro-7H-1,3-dioxolo-[4,5-h][2,3]benzodiazepine] | 218 to 220 °C |
| CCc1nnc(N2N=C(c3ccc([N+](=O)[O-])cc3)c3cc4c(cc3C[C@H]2C)OCO4)s1 [Example 31, (R)-7-(5-Ethyl-1,3,4-thiadiazol-2-yl)-8-methyl-5-(4-nitrophenyl)-8,9-dihydro-7H-1,3-dioxolo[4,5-h][2,3]benzodiazepine] | 105 °C |
| Cc1cc(C2=NN(c3nnc(CO)s3)[C@H](C)Cc3cc4c(cc32)OCO4)ccc1[N+](=O)[O-] [Example 140, (R)-7-(5-Hydroxymethyl-1,3,4-thiadiazol-2-yl)-8-methyl-5-(3-methyl-4-nitrophenyl)-8,9-dihydro-7H-1,3-dioxolo[4,5-h][2,3]benzodiazepine] | 142 to 145 °C |
| Cc1ncc(N2N=C(c3ccc(N)cc3)c3cc4c(cc3CC2C)OCO4)o1 (racemic) [Example 187, (±)-5-(4-Aminophenyl)-8-methyl-7-(2-methyl-1,3-oxazol-5-yl)-8,9-dihydro-7H-1,3-dioxolo-[4,5-h][2,3]benzodiazepine] | 148 to 150 °C |
| Cc1cc(C2=NN(c3nccs3)[C@H](C)Cc3cc4c(cc32)OCO4)cc(C)c1N [Example 189, (R)-5-(4-Amino-3,5-dimethylphenyl)-8-methyl-7-(thiazol-2-yl)-8,9-dihydro-7H-1,3-dioxolo-[4,5-h][2,3]benzodiazepine] | 202 to 203 °C |
| Cc1nnc(N2N=C(c3ccc(N)cc3)c3cc4c(cc3C[C@H]2C)OCO4)s1 (hydrate or solvate) [Example 86, (R)-5-(4-Aminophenyl)-8-methyl-7-(5-methyl-1,3,4-thiadiazol-2-yl)-8,9-dihydro-7H-1,3-dioxolo-[4,5-h][2,3]benzodiazepine] | 168 to 170 °C |
| CC(=O)OCc1nnc(N2N=C(c3ccc(N)c(C)c3)c3cc4c(cc3C[C@H]2C)OCO4)s1 [Example 172, (R)-7-(5-Acetoxymethyl-1,3,4-thiadiazol-2-yl)-5-(4-amino-3-methylphenyl)-8-methyl-8,9-dihydro-7H-1,3-dioxolo[4,5-h][2,3]benzodiazepine] | 204 to 206 °C |
| Cc1nnc(N2N=C(c3cc(C)c(N)c(C)c3)c3cc4c(cc3C[C@H]2C)OCO4)o1 [Example 191, (R)-5-(4-Amino-3,5-dimethylphenyl)-8-methyl-7-(5-methyl-1,3,4-oxadiazol-2-yl)-8,9-dihydro-7H-1,3-dioxolo[4,5-h][2,3]benzodiazepine] | 148 to 150 °C |
| Cc1cc(C2=NN(c3nccs3)C(C)Cc3cc4c(cc32)OCO4)ccc1N (racemic) [Example 75, (±)-5-(4-Amino-3-methylphenyl)-8-methyl-7-(2-thiazolyl)-8,9-dihydro-7H-1,3-dioxolo-[4,5-h][2,3]benzodiazepine] | 225 to 227 °C |
